Target: purified human, His-tagged PRC2 complex (Homo sapiens (Human), UniProt O75530)
Assay: Hot Spot HMT assay, inhibition of PRC2 enzymatic activity
Assay type: biochemical
Conditions: 10 nM PRC2 complex, 1 μM 3H-SAM, core histone H3, 10-point dose-response
From the text: The assay uses purified human, His-tagged PRC2 complex, including N-terminal His-tagged EZH2 enzyme, N-terminal Flag-tagged embryonic ectoderm development protein (EED), N-terminal His-tagged suppressor of zeste 12 (SUZ12), N-terminal His-tagged AEBP2, and N-terminal His-tagged RbAp48. In this assay, the transfer of the tritiated methyl group from radiolabeled S-adenosyl methionine (SAM) to purified core histone protein by EZH2 is quantitated after filtration to determine the activity of the core PRC2 complex in the presence and absence of compound.
The initial starting concentration for the serial dilutions of each compound was 1.0 μM. […] SAH (S-(5-adenosyl)-L-homocysteine) was used as a positive control for assay validation.
An aliquot of each serial dilution of test compound was added to deep 384 well plate using Acoustic Technology instrument (Echo 550, LabCyte) containing reaction buffer (50 mM Tris-HCl (pH 8.)), 0.01% Brij35, 1 mM EDTA, 1 mM DTT, 1 mM PMSF and 1% DMSO), 10 nM purified PRC2 complex and 0.05 mg/ml core histone H3 in a 5 μl volume. The reaction was mixed gently and then pre-incubated for 20 min at 30° C. The enzymatic reaction was initiated by adding 1 μM S-Adenosyl-L-[methyl-^3H]methionine and incubated for 1 hr at 30° C. After 1 hr, the reaction product was detected using a filter binding method and the amount of tritiated H3 core histone was quantitated using a scintillation counter. […] Key: A=<100 nM; B=>100 nM-<500 nM; and C=>500 nM.

purified human, His-tagged PRC2 complex, sequence (O75530 whole entry): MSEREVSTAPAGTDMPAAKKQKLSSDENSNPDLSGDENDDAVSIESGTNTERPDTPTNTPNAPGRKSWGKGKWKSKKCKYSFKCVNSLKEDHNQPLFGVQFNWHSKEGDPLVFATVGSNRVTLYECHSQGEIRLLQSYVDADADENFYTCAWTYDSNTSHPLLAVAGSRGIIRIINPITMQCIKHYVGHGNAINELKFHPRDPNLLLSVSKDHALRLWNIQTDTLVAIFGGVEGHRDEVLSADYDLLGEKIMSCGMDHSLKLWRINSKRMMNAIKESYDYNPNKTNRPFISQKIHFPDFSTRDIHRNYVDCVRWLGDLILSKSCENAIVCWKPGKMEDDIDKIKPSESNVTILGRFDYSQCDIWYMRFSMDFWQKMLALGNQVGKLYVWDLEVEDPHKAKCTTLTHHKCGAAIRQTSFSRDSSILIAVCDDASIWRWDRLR
purified human, His-tagged PRC2 complex, sequence (Q15910 whole entry partner): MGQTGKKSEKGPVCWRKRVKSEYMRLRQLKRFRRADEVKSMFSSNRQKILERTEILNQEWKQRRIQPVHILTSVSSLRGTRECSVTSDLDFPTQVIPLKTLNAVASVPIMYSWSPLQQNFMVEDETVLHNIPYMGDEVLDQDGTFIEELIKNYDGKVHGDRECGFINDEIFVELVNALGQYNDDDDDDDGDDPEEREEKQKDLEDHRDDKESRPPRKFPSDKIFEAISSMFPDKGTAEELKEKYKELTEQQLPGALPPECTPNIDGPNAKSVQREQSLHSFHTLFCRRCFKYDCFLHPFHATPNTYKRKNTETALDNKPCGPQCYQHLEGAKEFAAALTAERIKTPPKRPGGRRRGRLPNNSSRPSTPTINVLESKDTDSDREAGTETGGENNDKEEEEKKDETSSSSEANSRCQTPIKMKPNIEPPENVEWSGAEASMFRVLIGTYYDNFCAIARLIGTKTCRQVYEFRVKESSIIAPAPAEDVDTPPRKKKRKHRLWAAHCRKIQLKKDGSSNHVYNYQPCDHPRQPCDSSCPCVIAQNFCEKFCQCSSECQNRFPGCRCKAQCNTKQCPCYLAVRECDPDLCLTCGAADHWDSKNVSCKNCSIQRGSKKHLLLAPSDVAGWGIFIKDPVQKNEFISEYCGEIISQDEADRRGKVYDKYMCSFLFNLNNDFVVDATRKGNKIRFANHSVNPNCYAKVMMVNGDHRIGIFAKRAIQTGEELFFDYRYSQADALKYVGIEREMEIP
purified human, His-tagged PRC2 complex, sequence (Q15022 whole entry partner): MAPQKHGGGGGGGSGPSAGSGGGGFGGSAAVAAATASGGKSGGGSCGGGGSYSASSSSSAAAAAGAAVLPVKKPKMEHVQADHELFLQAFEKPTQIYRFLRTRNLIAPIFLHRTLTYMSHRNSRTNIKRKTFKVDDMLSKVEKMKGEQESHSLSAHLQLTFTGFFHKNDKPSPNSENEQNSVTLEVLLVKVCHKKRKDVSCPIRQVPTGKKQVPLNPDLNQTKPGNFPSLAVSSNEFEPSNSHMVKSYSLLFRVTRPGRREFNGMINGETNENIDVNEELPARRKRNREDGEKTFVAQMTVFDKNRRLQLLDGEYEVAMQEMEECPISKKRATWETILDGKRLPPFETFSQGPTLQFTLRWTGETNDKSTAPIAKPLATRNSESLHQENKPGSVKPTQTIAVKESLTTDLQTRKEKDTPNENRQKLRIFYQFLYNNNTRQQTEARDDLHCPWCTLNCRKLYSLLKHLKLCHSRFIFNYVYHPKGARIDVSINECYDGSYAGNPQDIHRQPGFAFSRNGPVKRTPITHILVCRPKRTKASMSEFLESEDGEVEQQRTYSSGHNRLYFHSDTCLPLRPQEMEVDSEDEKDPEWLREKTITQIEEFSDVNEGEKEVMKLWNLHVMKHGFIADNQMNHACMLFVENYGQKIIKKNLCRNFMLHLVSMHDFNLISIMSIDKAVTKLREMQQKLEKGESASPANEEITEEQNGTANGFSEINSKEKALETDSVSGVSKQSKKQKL
purified human, His-tagged PRC2 complex, sequence (Q6ZN18 whole entry partner): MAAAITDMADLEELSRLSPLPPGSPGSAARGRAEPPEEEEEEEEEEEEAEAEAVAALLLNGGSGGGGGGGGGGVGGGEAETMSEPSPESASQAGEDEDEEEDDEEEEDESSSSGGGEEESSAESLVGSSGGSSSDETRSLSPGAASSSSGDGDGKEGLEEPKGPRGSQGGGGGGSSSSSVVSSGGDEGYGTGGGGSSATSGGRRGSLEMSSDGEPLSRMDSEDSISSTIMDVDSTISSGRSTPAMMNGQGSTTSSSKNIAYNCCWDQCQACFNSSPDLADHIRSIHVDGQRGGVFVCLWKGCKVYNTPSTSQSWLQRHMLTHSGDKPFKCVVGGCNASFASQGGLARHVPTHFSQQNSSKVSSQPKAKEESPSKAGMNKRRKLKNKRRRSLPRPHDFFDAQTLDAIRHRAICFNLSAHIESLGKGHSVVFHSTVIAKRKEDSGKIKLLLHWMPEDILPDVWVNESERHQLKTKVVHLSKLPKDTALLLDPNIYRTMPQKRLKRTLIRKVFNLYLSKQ
purified human, His-tagged PRC2 complex, sequence (Q09028 whole entry partner): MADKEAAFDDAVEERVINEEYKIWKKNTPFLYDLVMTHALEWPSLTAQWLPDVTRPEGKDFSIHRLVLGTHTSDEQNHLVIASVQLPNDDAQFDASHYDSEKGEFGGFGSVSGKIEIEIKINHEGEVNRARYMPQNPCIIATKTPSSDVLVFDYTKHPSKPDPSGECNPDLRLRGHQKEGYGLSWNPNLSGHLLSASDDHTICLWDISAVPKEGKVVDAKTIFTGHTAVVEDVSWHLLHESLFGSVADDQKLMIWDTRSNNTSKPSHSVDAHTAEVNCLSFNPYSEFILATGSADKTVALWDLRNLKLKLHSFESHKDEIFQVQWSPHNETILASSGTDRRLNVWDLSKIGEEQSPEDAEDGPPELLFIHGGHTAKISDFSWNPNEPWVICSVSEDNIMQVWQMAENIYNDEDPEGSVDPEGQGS

Structure (SMILES)	IC50
COc1cc(C)c(-c2cnc(NCc3c(F)ccc4c3CCO4)n3cc(C(N)=O)nc23)cn1 [Example 14, 5-(((5-fluoro-2,3-dihydrobenzofuran-4-yl)methyl)amino)-8-(6-methoxy-4-methylpyridin-3-yl)imidazo[1,2-c]pyrimidine-2-carboxamide]	0.1 to 0.5 µM
Cc1nc(C2CC2)ncc1-c1cnc(NCc2c(F)ccc3c2CCO3)n2cc(C(N)=O)nc12 [Example 15, 8-(2-cyclopropyl-4-methylpyrimidin-5-yl)-5-(((5-fluoro-2,3-dihydrobenzofuran-4-yl)methyl)amino)imidazo[1,2-c]pyrimidine-2-carboxamide]	0.1 to 0.5 µM
Cc1cn(-c2cnc(NCc3c(F)ccc4c3CCO4)n3cc(C(N)=O)nc23)cn1 [Example 17, 5-(((5-fluoro-2,3-dihydrobenzofuran-4-yl)methyl)amino)-8-(4-methyl-1H-imidazol-1-yl)imidazo[1,2-c]pyrimidine-2-carboxamide]	0.1 to 0.5 µM
Cc1cc(-c2cnc(NCc3c(F)ccc4c3CCO4)n3cc(C(=O)N(C)C)nc23)n(C)n1 [Example 21, 8-(1,3-dimethyl-1H-pyrazol-5-yl)-5-(((5-fluoro-2,3-dihydrobenzofuran-4-yl)methyl)amino)-N,N-dimethylimidazo[1,2-c]pyrimidine-2-carboxamide]	> 0.5 µM
Cc1ncccc1-c1cnc(NCc2c(F)ccc3occc23)n2cc(C#N)nc12 [Example 22, 5-(((5-fluorobenzofuran-4-yl)methyl)amino)-8-(2-methylpyridin-3-yl)imidazo[1,2-c]pyrimidine-2-carbonitrile]	0.1 to 0.5 µM
Cc1nn(C(C)C)cc1-c1cnc(NCc2c(F)ccc3c2CCO3)n2cc(C#N)nc12 [Example 23, 5-(((5-fluoro-2,3-dihydrobenzofuran-4-yl)methyl)amino)-8-(1-isopropyl-3-methyl-1H-pyrazol-4-yl)imidazo[1,2-c]pyrimidine-2-carbonitrile]	0.1 to 0.5 µM
COc1cc(C)c(-c2cnc(NCc3c(F)ccc4c3CCO4)n3cc(C#N)nc23)cn1 [Example 24, 5-(((5-fluoro-2,3-dihydrobenzofuran-4-yl)methyl)amino)-8-(6-methoxy-4-methylpyridin-3-yl)imidazo[1,2-c]pyrimidine-2-carbonitrile]	0.1 to 0.5 µM
Cc1nc(C2CC2)ncc1-c1cnc(NCc2c(F)ccc3c2CCO3)n2cc(C#N)nc12 [Example 25, 8-(2-cyclopropyl-4-methylpyrimidin-5-yl)-5-(((5-fluoro-2,3-dihydrobenzofuran-4-yl)methyl)amino)imidazo[1,2-c]pyrimidine-2-carbonitrile]	0.1 to 0.5 µM
Cc1c(-c2cnc(NCc3c(F)ccc4c3CCO4)n3cc(C#N)nc23)cnn1C(C)C [Example 26, 5-(((5-fluoro-2,3-dihydrobenzofuran-4-yl)methyl)amino)-8-(1-isopropyl-5-methyl-1H-pyrazol-4-yl)imidazo[1,2-c]pyrimidine-2-carbonitrile]	0.1 to 0.5 µM
Cc1cc(-c2cnc(NCc3cccc4c3OCO4)n3cc(C#N)nc23)n(C)n1 [Example 27, 5-((benzo[d][1,3]dioxol-4-ylmethyl)amino)-8-(1,3-dimethyl-1H-pyrazol-5-yl)imidazo[1,2-c]pyrimidine-2-carbonitrile]	> 0.5 µM
Cc1cc(-c2cnc(NCc3c(Cl)ccc4c3CCO4)n3cc(C#N)nc23)n(C)n1 [Example 29, 5-(((5-chloro-2,3-dihydrobenzofuran-4-yl)methyl)amino)-8-(1,3-dimethyl-1H-pyrazol-5-yl)imidazo[1,2-c]pyrimidine-2-carbonitrile]	> 0.5 µM
Cc1cc(-c2cnc(NCc3cccc4c3CCO4)n3cc(C#N)nc23)n(C)n1 [Example 30, 5-(((2,3-dihydrobenzofuran-4-yl)methyl)amino)-8-(1,3-dimethyl-1H-pyrazol-5-yl)imidazo[1,2-c]pyrimidine-2-carbonitrile]	0.1 to 0.5 µM

The remaining lines, values ahead:

IC50	Structure (SMILES)
< 0.1 µM	Cc1cc(C2CCCN2)ccc1-c1cnc(NCc2c(F)ccc3c2CCO3)n2cc(C#N)nc12 (single isomer, unassigned) [Example 213, 5-(((5-fluoro-2,3-dihydrobenzofuran-4-yl)methyl)amino)-8-(2-methyl-4-(pyrrolidin-2-yl)phenyl)imidazo[1,2-c]pyrimidine-2-carbonitrile]
< 0.1 µM	Cc1cc(C2CCCN2)ccc1-c1cnc(NCc2c(F)ccc3c2CCO3)n2cc(C#N)nc12 (single isomer, unassigned) [Example 214, 5-(((5-fluoro-2,3-dihydrobenzofuran-4-yl)methyl)amino)-8-(2-methyl-4-(pyrrolidin-2-yl)phenyl)imidazo[1,2-c]pyrimidine-2-carbonitrile]
< 0.1 µM	Cc1cn(-c2cnc(NCc3c(F)ccc4c3CCO4)n3cc(C(=O)O)nc23)cn1 [Example 4, 5-(((5-fluoro-2,3-dihydrobenzofuran-4-yl)methyl)amino)-8-(4-methyl-1H-imidazol-1-yl)imidazo[1,2-c]pyrimidine-2-carboxylic Acid]
< 0.1 µM	Cc1nn(C(C)C)cc1-c1cnc(NCc2c(F)ccc3c2CCO3)n2cc(C(=O)O)nc12 [Example 5, 5-(((5-fluoro-2,3-dihydrobenzofuran-4-yl)methyl)amino)-8-(1-isopropyl-3-methyl-1H-pyrazol-4-yl)imidazo[1,2-c]pyrimidine-2-carboxylic acid]
0.1 to 0.5 µM	COc1cc(C)c(-c2cnc(NCc3c(F)ccc4c3CCO4)n3cc(C(=O)O)nc23)cn1 [Example 6, 5-(((5-fluoro-2,3-dihydrobenzofuran-4-yl)methyl)amino)-8-(6-methoxy-4-methylpyridin-3-yl)imidazo[1,2-c]pyrimidine-2-carboxylic acid]
< 0.1 µM	Cc1nc(C2CC2)ncc1-c1cnc(NCc2c(F)ccc3c2CCO3)n2cc(C(=O)O)nc12 [Example 7, 8-(2-cyclopropyl-4-methylpyrimidin-5-yl)-5-(((5-fluoro-2,3-dihydrobenzofuran-4-yl)methyl)amino)imidazo[1,2-c]pyrimidine-2-carboxylic acid]
< 0.1 µM	Cc1c(-c2cnc(NCc3c(F)ccc4c3CCO4)n3cc(C(=O)O)nc23)cnn1C(C)C [Example 8, 5-(((5-fluoro-2,3-dihydrobenzofuran-4-yl)methyl)amino)-8-(1-isopropyl-5-methyl-1H-pyrazol-4-yl)imidazo[1,2-c]pyrimidine-2-carboxylic acid]
< 0.1 µM	Cc1cc(-c2cnc(NCc3c(F)ccc4occc34)n3cc(C(=O)O)nc23)n(C)n1 [Example 9, 8-(1,3-dimethyl-1H-pyrazol-5-yl)-5-(((5-fluorobenzofuran-4-yl)methyl)amino)imidazo[1,2-c]pyrimidine-2-carboxylic acid]
< 0.1 µM	Cc1cc(-c2cnc(NCc3cccc4c3CCO4)n3cc(C(=O)O)nc23)n(C)n1 [Example 10, 5-(((2,3-dihydrobenzofuran-4-yl)methyl)amino)-8-(1,3-dimethyl-1H-pyrazol-5-yl)imidazo[1,2-c]pyrimidine-2-carboxylic acid]
< 0.1 µM	Cc1cc(-c2cnc(NCc3c(F)ccc4c3CCO4)n3cc(C(N)=O)nc23)n(C)n1 [Example 11, 8-(1,3-dimethyl-1H-pyrazol-5-yl)-5-(((5-fluoro-2,3-dihydrobenzofuran-4-yl)methyl)amino)imidazo[1,2-c]pyrimidine-2-carboxamide]
< 0.1 µM	Cc1ncccc1-c1cnc(NCc2c(F)ccc3occc23)n2cc(C(N)=O)nc12 [Example 12, 5-(((5-fluorobenzofuran-4-yl)methyl)amino)-8-(2-methylpyridin-3-yl)imidazo[1,2-c]pyrimidine-2-carboxamide]
< 0.1 µM	Cc1nn(C(C)C)cc1-c1cnc(NCc2c(F)ccc3c2CCO3)n2cc(C(N)=O)nc12 [Example 13, 5-(((5-fluoro-2,3-dihydrobenzofuran-4-yl)methyl)amino)-8-(1-isopropyl-3-methyl-1H-pyrazol-4-yl)imidazo[1,2-c]pyrimidine-2-carboxamide]
< 0.1 µM	Cc1c(-c2cnc(NCc3c(F)ccc4c3CCO4)n3cc(C(N)=O)nc23)cnn1C(C)C [Example 16, 5-(((5-fluoro-2,3-dihydrobenzofuran-4-yl)methyl)amino)-8-(1-isopropyl-5-methyl-1H-pyrazol-4-yl)imidazo[1,2-c]pyrimidine-2-carboxamide]
< 0.1 µM	Cc1cc(-c2cnc(NCc3c(F)ccc4occc34)n3cc(C(N)=O)nc23)n(C)n1 [Example 18, 8-(1,3-dimethyl-1H-pyrazol-5-yl)-5-(((5-fluorobenzofuran-4-yl)methyl)amino)imidazo[1,2-c]pyrimidine-2-carboxamide]
< 0.1 µM	Cc1cc(-c2cnc(NCc3cccc4c3CCO4)n3cc(C(N)=O)nc23)n(C)n1 [Example 19, 5-(((2,3-dihydrobenzofuran-4-yl)methyl)amino)-8-(1,3-dimethyl-1H-pyrazol-5-yl)imidazo[1,2-c]pyrimidine-2-carboxamide]
< 0.1 µM	CNC(=O)c1cn2c(NCc3c(F)ccc4c3CCO4)ncc(-c3cc(C)nn3C)c2n1 [Example 20, 8-(1,3-dimethyl-1H-pyrazol-5-yl)-5-(((5-fluoro-2,3-dihydrobenzofuran-4-yl)methyl)amino)-N-methylimidazo[1,2-c]pyrimidine-2-carboxamide]
